Reference: publication PMC8037810, “L-Glutaminase Synthesis by Marine Halomonas meridiana Isolated from the Red Sea and Its Efficiency against Colorectal Cancer Cell Lines” (Molecules, 2021)

Tested on: T1, L-glutaminase
T1 construct: gene glsA; native enzyme purified from culture supernatant (ammonium sulfate, Sephadex G-200); about 57 kDa by SDS-PAGE
Test: Nesslerization of released ammonia; Lineweaver-Burk plot
Format: biochemical, Vreelandella aquamarina
Details: Tris buffer, 37 °C; pH of kinetic assay not stated (general assay pH 7, optimum pH 8.0); assayed L-glutamine 0.01-0.8 M, far above the printed Km

- Km: 12.2 µM
Structure (SMILES): NC(=O)CC[C@H](N)C(=O)O [L-glutamine]
